Where a SMILES comes first, the peptide text is derived from it. The star is where a group is joined. Cbz = O=C(OCc1ccccc1)*; CH2F = FC*
Experiments:
m-calpain = molecular target: T1, m-calpain (Homo sapiens, UniProt P17655); assay: irreversible inhibition of m-calpain, k2 rate constant; type: biochemical; conditions: m-calpain / cathespin L, 28,900/680,000
T1 sequence (P17655 1-700): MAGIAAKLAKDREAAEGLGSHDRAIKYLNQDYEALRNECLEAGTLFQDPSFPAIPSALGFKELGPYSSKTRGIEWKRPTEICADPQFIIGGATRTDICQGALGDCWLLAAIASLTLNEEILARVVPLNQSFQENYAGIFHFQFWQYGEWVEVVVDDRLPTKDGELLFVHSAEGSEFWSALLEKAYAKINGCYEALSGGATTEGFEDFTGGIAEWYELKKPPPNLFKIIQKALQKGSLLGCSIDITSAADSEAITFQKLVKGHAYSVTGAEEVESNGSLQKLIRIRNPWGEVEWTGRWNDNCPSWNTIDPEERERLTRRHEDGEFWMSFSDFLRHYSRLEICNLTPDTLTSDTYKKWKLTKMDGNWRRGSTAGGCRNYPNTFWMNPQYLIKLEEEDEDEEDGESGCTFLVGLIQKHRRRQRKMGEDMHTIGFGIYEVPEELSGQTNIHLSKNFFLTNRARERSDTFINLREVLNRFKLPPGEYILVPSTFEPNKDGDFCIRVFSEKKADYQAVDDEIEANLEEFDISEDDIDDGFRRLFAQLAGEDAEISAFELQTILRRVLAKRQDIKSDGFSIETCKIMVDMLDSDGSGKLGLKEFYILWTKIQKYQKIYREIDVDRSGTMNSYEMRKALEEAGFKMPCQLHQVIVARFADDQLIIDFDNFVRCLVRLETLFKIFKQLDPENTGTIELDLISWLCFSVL
T1 sequence (P04632 1-268 partner): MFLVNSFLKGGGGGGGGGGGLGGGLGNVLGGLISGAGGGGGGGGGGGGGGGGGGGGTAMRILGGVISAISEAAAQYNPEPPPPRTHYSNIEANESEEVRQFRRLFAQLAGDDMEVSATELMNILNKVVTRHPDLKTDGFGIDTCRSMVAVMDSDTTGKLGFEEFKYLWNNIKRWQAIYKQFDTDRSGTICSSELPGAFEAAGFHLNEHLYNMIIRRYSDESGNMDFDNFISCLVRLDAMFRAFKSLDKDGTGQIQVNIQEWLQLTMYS
Description: In some aspects, the m-calpain selective inhibitor can be an irreversible inhibitor of m-calpain. The inhibition is made […] by the nucleophilic attack of the active cysteine in m-calpain to the electrophilic moeity of the m-calpain selective inhibitor to form a covalent bond (Moldoveanu, T.; Campbell, R. L.; Cuerrier, D.; Davies, P. L. J. Mol. Biol., 343, 1313-1326, 2004; Carragher, N. O., Curr. Pharm. Des., 12, 615-638, 2006). […] However, ZZ-LLY-CH2F can inhibit the off-target protein cathespin L with a rate constant k2 of 680,000 M^−1s^−1 (Li, Q.; Hanzlik, R. P.; Weaver, R. F.; Schoenbrunn, E., Biochemistry, 45:701-708, 2006). Thus, the ratio of inhibition rates k2 of the on-target m-calpain to an off-target protein can be around 28,900/680,000, or about 0.041. The ratio of inhibition rates k2 of the on-target m-calpain to an off-target protein can be greater than about 0.5, or greater than 0.1, or greater than 0.05, or greater than 0.01.

[1] = tested on: cytokine mRNAs in colon tissues; assay: AOM/DSS model, colon cytokine mRNA by real-time PCR; type: in vivo, mice; conditions: day 63, vs vehicle control
Procedure: Mice subjected to the AOM/DSS model were sacrificed on day 63 and colons removed and assessed by histology and cytokine mRNA analyses. […] To further assess inflammation, mouse colon tissues were harvested at the end of the chronic colitis model and mRNA levels for different cytokines measured by real-time PCR.
To determine if a similar mechanism may be contributing to the effect of the calpain-2 inhibition in the DSS model of colitis, macrophages were analyzed for NFκB activation and inflammatory cytokine secretion. Bone marrow derived macrophages were primed […] with TNFα (20 ng/ml) and activated with E. faecalis (1 μg/ml) for 1 h in the presence or absence of calpain-2 inhibitor (20 μg/ml). Supernatants were evaluated for a panel of cytokines including IFNγ, TNFα, IL-6, and MCP-1, IL-10, and IL-12. Real-time PCR was performed on total RNA extracted from colon tissues to access levels of cytokines. Media was collected from wells and cytokines assessed by CBA kit (BD Biosciences). For IκB blotting cells were lysed and SDS-PAGE was performed. Membranes were stained with anti-IκB (Cell Signalling) and anti-βactin (Santa Cruz). For NfκB blotting an NFκB Activation Kit (Five Photon) was used to isolate nuclear fractions. These fractions were transferred using SDS-PAGE. The membranes were stained with anti-NFκB (Santa Cruz) or anti-TATA (Abcam). Data are mean±SE (n=3) and represent results from three independent experiments. *p<0.05; one way ANOVA followed by Tukey post-test. […] Importantly, those cytokines most affected by the calpain-2 are regulated by NFκB.

SMILES: CC(C)C[C@H](NC(=O)OCc1ccccc1)C(=O)N[C@@H](CC(C)C)C(=O)N[C@@H](Cc1ccc(O)cc1)C(=O)CF [zLLY-CH2F, Z-LLY-CH2F] (Cbz-Leu-Leu-Tyr-CH2F)
- ratio of inhibition rates k2 of on-target m-calpain to off-target protein (m-calpain): about 0.041
- IFNγ mRNA level in colon [1]: not significantly different
- IL-6 mRNA level in colon [1]: lowered
- MCP-1 mRNA level in colon [1]: lowered
- TNFα mRNA level in colon [1]: lowered

From US20160279187A1, “CALPAIN INHIBITORS FOR IBD AND COLORECTAL CANCER TREATMENT” (UNIVERSITY OF HAWAII, priority 2013, published 2016)
